What was measured:
[1] = target: T1, Sphingosine kinase 2 (Homo sapiens) (UniProt Q9NRA0); test: Effect on rate of phosphorylation of human recombinant SPHK2 expressed in HEK293 cells; type: cell-based
T1 sequence (whole entry): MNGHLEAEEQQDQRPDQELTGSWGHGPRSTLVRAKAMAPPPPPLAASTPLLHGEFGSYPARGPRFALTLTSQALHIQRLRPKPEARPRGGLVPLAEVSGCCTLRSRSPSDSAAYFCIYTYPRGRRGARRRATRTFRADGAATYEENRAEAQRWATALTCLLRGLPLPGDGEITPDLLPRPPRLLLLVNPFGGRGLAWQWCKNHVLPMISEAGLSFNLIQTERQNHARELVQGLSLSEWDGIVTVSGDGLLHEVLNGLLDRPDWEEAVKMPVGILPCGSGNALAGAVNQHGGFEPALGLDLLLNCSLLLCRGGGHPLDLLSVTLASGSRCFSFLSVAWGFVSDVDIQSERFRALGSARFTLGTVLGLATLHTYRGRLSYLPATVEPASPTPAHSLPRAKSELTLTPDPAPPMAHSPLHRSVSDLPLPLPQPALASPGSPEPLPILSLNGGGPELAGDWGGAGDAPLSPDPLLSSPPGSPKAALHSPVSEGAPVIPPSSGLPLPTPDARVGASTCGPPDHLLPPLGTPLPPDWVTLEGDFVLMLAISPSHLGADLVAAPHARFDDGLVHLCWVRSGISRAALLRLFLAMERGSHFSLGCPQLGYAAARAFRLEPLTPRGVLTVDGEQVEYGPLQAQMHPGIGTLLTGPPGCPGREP

[2] = target: Sphingosine 1-phosphate receptor 1 (Homo sapiens, UniProt P21453); test: Activity at human recombinant S1P1 receptor expressed in CHO cells assessed as increase in calcium release by FLIPR assay; type: functional, cell-based
[3] = target: T2, Sphingosine 1-phosphate receptor 4 (Homo sapiens, UniProt O95977); test: Activity at human recombinant S1P4 receptor expressed in CHO cells assessed as increase in calcium release by FLIPR assay; type: functional, cell-based
T2 sequence (O95977 whole entry): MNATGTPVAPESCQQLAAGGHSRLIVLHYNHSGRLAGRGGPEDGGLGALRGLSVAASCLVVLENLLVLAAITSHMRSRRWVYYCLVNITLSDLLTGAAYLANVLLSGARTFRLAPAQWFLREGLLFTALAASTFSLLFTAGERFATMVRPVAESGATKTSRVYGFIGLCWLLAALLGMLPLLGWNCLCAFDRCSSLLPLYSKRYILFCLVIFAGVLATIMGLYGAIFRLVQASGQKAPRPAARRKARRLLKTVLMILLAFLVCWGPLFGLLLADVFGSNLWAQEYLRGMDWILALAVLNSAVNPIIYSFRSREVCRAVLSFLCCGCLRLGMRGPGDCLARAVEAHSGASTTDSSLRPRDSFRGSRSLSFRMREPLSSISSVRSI

[4] = target: Sphingosine 1-phosphate receptor 3 (Homo sapiens, UniProt Q99500); test: Activity at human recombinant S1P3 receptor expressed in CHO cells assessed as increase in calcium release by FLIPR assay; type: functional, cell-based
[5] = target: Sphingosine 1-phosphate receptor 5 (Homo sapiens, UniProt Q9H228); test: Activity at human recombinant S1P5 receptor expressed in CHO cells assessed as increase in calcium release by FLIPR assay; type: functional, cell-based
Chain of Sphingosine 1-phosphate receptor 5 (Q9H228 whole entry): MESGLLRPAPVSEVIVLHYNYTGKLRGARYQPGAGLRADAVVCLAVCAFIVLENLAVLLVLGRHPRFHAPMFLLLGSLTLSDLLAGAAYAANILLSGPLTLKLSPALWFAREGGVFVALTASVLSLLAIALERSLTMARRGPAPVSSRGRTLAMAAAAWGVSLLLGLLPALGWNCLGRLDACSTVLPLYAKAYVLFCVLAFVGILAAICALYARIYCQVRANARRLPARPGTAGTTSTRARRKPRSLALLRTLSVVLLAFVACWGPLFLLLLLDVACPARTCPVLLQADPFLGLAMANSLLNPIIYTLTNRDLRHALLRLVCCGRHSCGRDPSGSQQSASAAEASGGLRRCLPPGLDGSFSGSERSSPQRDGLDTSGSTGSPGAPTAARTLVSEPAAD

Chain of Sphingosine 1-phosphate receptor 1 (P21453 whole entry): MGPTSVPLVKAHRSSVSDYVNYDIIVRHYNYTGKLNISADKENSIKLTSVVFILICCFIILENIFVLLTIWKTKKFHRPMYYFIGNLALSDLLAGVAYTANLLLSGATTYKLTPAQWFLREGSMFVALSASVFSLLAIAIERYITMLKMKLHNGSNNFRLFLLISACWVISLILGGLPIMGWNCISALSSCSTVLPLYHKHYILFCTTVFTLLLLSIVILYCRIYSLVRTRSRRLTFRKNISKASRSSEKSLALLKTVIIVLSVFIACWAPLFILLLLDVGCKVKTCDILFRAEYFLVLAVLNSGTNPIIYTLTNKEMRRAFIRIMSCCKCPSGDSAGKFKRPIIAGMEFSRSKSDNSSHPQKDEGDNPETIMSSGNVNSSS
Chain of Sphingosine 1-phosphate receptor 3 (Q99500 whole entry): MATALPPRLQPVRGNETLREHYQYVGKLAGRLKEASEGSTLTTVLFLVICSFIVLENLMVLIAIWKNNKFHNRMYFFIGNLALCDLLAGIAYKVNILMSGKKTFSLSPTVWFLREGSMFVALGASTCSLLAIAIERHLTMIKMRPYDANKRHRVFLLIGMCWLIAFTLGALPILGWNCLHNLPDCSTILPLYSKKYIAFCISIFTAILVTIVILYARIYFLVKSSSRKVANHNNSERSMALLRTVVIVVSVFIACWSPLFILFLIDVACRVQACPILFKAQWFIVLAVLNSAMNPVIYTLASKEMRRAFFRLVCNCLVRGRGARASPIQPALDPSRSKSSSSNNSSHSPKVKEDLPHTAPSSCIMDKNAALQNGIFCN

Row | SMILES | Activity [1] [%] | EC50 [2] [nM] | EC50 [3] [nM] | EC50 [4] [nM] | EC50 [5] [nM]
1 | CCCCCCCCCCCCC/C=C/[C@@H](O)[C@@H](N)COP(=O)(O)O |  | 0.55 | 7.9 | 1.6 | 
2 | CCCCCCCCc1ccc([C@@H]2C[C@@H](COP(=O)(O)O)N[C@H]2CO)cc1 |  | > 1000 | 16.8 | > 1000 | 5.8
3 | CCCCCCCCc1ccc(CC[C@@](N)(CO)COP(=O)(O)O)cc1 |  |  | 18.6 |  | 
4 | CCCCCCCCc1ccc([C@H]2C[C@H](COP(=O)(O)O)N[C@@H]2CO)cc1 |  | > 1000 | 7.4 | > 1000 | 10.2

Results, then the compound that gave them:

Row | Activity [1] [%] | EC50 [2] [nM] | EC50 [3] [nM] | EC50 [4] [nM] | EC50 [5] [nM] | SMILES
5 | 100 |  |  |  |  | CCCCCCCCCCCCC/C=C/[C@@H](O)[C@@H](N)CO
6 | < 0.1 |  |  |  |  | CCCCCCCCc1ccc([C@@H]2C[C@@H](CO)N[C@H]2CO)cc1
7 |  | > 1000 | 33.1 | > 1000 | 21.3 | CCCCCCCCc1ccc([C@@H]2C[C@@H](CO)N[C@H]2COP(=O)(O)O)cc1
8 | 55 |  |  |  |  | CCCCCCCCc1ccc([C@H]2C[C@H](CO)N[C@@H]2CO)cc1
9 | 13 |  |  |  |  | CCCCCCCCc1ccc(CCC(N)(CO)CO)cc1
10 |  | > 1000 | 347 | > 1000 | 134 | CCCCCCCCc1ccc([C@H]2C[C@H](CO)N[C@@H]2COP(=O)(O)O)cc1
